Data: PubChem BioAssay AID1919001 (Molecular Pharmacology Branch, DTP, NCI, 2023)

Test system: 699152-130-R-J1-PDC complex spheroid growth
Assay: Anticancer human tumor 699152-130-R-J1-PDC patient-derived pancreatic carcinoma cell line growth inhibition [AhR]
Conditions: for IC50: curve of first compound; for viability, T/C: stronger effect = lower value
How it was run: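 Complex tumor spheroids co-cultured with HUVEC and human MSC stroma; AhR antagonists tested in combination with standard-of-care and investigational agents. Top concentration at or near clinical Cmax (else 10 microM), half-log dilutions; growth expressed as percent test/control.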

[1] = second compound 0.1 µM, first compound 0.0316 µM
[2] = second compound 0.1 µM, first compound 0.1 µM
[3] = second compound 0.1 µM, first compound 0.316 µM
[4] = second compound 0.1 µM, first compound 1 µM
[5] = second compound 0.1 µM, first compound 3.16 µM
[6] = second compound 0.1 µM, first compound 10 µM
[7] = second compound 0.316 µM, first compound 0.0316 µM
[8] = second compound 0.316 µM, first compound 0.1 µM
[9] = second compound 0.316 µM, first compound 0.316 µM
[10] = second compound 0.316 µM, first compound 1 µM
[11] = second compound 0.316 µM, first compound 3.16 µM
[12] = second compound 0.316 µM, first compound 10 µM
[13] = second compound 1 µM, first compound 0.0316 µM
[14] = second compound 1 µM, first compound 0.1 µM
[15] = second compound 1 µM, first compound 0.316 µM
[16] = second compound 1 µM, first compound 1 µM
[17] = second compound 1 µM, first compound 3.16 µM
[18] = second compound 1 µM, first compound 10 µM
[19] = second compound 3.16 µM, first compound 0.0316 µM
[20] = second compound 3.16 µM, first compound 0.1 µM
[21] = second compound 3.16 µM, first compound 0.316 µM
[22] = second compound 3.16 µM, first compound 1 µM
[23] = second compound 3.16 µM, first compound 3.16 µM
[24] = second compound 3.16 µM, first compound 10 µM
[25] = second compound 10 µM, first compound 0.0316 µM
[26] = second compound 10 µM, first compound 0.1 µM
[27] = second compound 10 µM, first compound 0.316 µM
[28] = second compound 10 µM, first compound 1 µM
[29] = second compound 10 µM, first compound 3.16 µM
[30] = second compound 10 µM, first compound 10 µM
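Also: compound exposure lasted 7 days after spheroids had grown for 3 days.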

IC50 (second compound 0.1 µM)	IC50 (second compound 0.316 µM)	IC50 (second compound 1 µM)	IC50 (second compound 3.16 µM)	IC50 (second compound 10 µM)	Compound	viability, T/C [1]	viability, T/C [2]	viability, T/C [3]	viability, T/C [4]	viability, T/C [5]	viability, T/C [6]	viability, T/C [7]	viability, T/C [8]	viability, T/C [9]	viability, T/C [10]	viability, T/C [11]	viability, T/C [12]	viability, T/C [13]	viability, T/C [14]	viability, T/C [15]	also measured
> 10 µM	> 10 µM	> 10 µM	> 10 µM	> 10 µM	O=C(C=Cc1cccc(S(=O)(=O)Nc2ccccc2)c1)NO + CC(CO)NC(=O)c1cc(-c2ccc(Cl)cc2)nn(-c2cnn(C)c2)c1=O	102%	102%	111%	112%	96.8%	79.1%	92.8%	107%	111%	106%	102%	76.2%	90.2%	96.8%	104%	viability, T/C [16]: 101%; viability, T/C [17]: 94.3%; viability, T/C [18]: 82.6%; viability, T/C [19]: 84.2%; viability, T/C [20]: 83.8%; viability, T/C [21]: 93.9%; viability, T/C [22]: 95.4%; viability, T/C [23]: 84%; viability, T/C [24]: 83.9%; viability, T/C [25]: 85%; viability, T/C [26]: 95.4%; viability, T/C [27]: 81.7%; viability, T/C [28]: 89.4%; viability, T/C [29]: 90.5%; viability, T/C [30]: 79.4%
> 10 µM	> 10 µM	> 10 µM	> 10 µM	< 0.0316 µM	CC(C)c1c(-c2ccccc2)nc2c(C#N)c[nH]n2c1=O + Cc1cncc(-c2nc(NCCc3c[nH]c4ccccc34)c3ncn(C(C)C)c3n2)c1	98.9%	103%	101%	107%	107%	111%	104%	109%	101%	116%	96.4%	96.8%	118%	118%	121%	viability, T/C [16]: 125%; viability, T/C [17]: 108%; viability, T/C [18]: 101%; viability, T/C [19]: 60.4%; viability, T/C [20]: 66.4%; viability, T/C [21]: 65%; viability, T/C [22]: 58.9%; viability, T/C [23]: 58.2%; viability, T/C [24]: 66.4%; viability, T/C [25]: 4.82%; viability, T/C [26]: 4.89%; viability, T/C [27]: 5.56%; viability, T/C [28]: 4.11%; viability, T/C [29]: 4.63%; viability, T/C [30]: 6.54%
9.98 µM	8.52 µM	> 10 µM	6.67 µM	7.75 µM	COc1cc(C2c3cc4c(cc3C(OC3OC5COC(C)OC5C(O)C3O)C3COC(=O)C23)OCO4)cc(OC)c1O (stereo not given) + CC(CO)NC(=O)c1cc(-c2ccc(Cl)cc2)nn(-c2cnn(C)c2)c1=O	101%	98.3%	87.8%	69.4%	61.9%	48.6%	93.7%	93.7%	74%	61.2%	54.8%	47.5%	95.1%	92.3%	82.2%	viability, T/C [16]: 73.3%; viability, T/C [17]: 53.2%; viability, T/C [18]: 53.9%; viability, T/C [19]: 82.4%; viability, T/C [20]: 86%; viability, T/C [21]: 69.5%; viability, T/C [22]: 65.5%; viability, T/C [23]: 59.1%; viability, T/C [24]: 45.5%; viability, T/C [25]: 77.6%; viability, T/C [26]: 82.9%; viability, T/C [27]: 79.7%; viability, T/C [28]: 57%; viability, T/C [29]: 57.1%; viability, T/C [30]: 43.3%
